Laboratory results published in patent USRE36494E, “2-aralkoxy and 2-alkoxy adenosine derivatives as coronary vasodilators and antihypertensive agents” (Discovery Therapeutics, Inc., priority 1993, dated 2000).
Each block holds one compound with its values, some of them ahead of it.

Key:
[1] = biological target: T1, A2 receptor of the coronary artery (Cavia porcellus, UniProt P46616); test: Coronary blood flow increase (A2 effect), isolated perfused Langendorff heart; design: species or system guinea pig (female Sprague-Dawley guinea pigs); settings: for Selectivity (A1/A2): ratio of SQ prolongation ED50 (A1) to coronary flow EC50 (A2); for affinity and selectivity for A2 adenosine receptors (in words): qualitative statement
T1 construct: perfused hearts from female Sprague-Dawley guinea pigs in an isolated Langendorff heart preparation; from tissue; host or cells: isolated perfused guinea pig heart (Langendorff), coronary vasculature
Method: (§1) Assays of the cardiovascular potency of the above compounds at the A1 receptors of the SA node and at the A2 receptor of the coronary artery employed perfused hearts from female Sprague-Dawley guinea pigs in an isolated Langendorff heart preparation. An assay consists of an infusion of a spectophotometrically standardized solution of test compound directly into the aortic cannula at rates increasing stepwise every 5 minutes. Collection of the total cardiac effluent during the first half of each infusion period provides a measure of coronary flow (A2 effect). The concentration of test compound required to produce a half-maximal increase in coronary flow is determined. Registration of the ECG assesses the effect of the test compound on SA node (stimulus to Q interval, A1 effect). The concentration of test compound required to produce a half-maximal prolongation of stimulus to Q interval is determined. […] The ratio of A1 and A2 effects of test compounds are calculated to provide the selectivity ratio.

[2] = biological target: T2, A1 receptors of the SA node (Cavia porcellus, UniProt P47745); test: SQ (stimulus to Q) interval prolongation (A1 effect), isolated perfused Langendorff heart; design: species or system guinea pig (female Sprague-Dawley guinea pigs); settings: concentration for half-maximal prolongation of stimulus to Q interval; infusion into aortic cannula, stepwise every 5 minutes; read-out: SQ Prolongation (A1) ED50
T2 construct: perfused hearts from female Sprague-Dawley guinea pigs in an isolated Langendorff heart preparation; from tissue; host or cells: isolated perfused guinea pig heart (Langendorff), nodal/conducting tissue
T2 sequence (P47745 1-326): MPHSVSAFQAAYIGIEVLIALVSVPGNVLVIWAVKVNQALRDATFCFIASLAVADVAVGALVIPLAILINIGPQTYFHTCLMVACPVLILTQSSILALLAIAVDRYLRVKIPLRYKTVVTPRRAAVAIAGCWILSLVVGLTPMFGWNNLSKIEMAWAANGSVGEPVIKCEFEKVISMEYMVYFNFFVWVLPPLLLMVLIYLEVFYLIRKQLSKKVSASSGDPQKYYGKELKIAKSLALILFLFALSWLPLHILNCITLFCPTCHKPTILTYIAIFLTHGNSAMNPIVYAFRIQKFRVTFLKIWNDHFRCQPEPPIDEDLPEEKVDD
Method: as §1

T1 sequence (P46616 whole entry, the tested form may be a part): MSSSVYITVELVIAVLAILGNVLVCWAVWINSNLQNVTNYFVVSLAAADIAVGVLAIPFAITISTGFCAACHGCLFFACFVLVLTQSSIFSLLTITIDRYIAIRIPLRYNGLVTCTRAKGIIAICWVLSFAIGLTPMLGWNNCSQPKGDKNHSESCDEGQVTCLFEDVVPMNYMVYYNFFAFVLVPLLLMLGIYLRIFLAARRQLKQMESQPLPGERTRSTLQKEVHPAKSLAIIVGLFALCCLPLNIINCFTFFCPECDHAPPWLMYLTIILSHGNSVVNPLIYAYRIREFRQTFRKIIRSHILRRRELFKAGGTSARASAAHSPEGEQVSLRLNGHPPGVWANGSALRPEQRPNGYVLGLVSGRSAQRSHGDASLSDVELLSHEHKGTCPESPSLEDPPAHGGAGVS

SMILES: Nc1nc(OCCCc2ccccc2)nc2c1ncn2[C@@H]1O[C@H](CO)[C@@H](O)[C@H]1O [Example 1, 2-(3-phenyl-1-propoxy)adenosine]
Selectivity (A1/A2) [1]: 326
EC50 [2]: 20 µM

SMILES: Nc1nc(OCCc2ccc(F)cc2)nc2c1ncn2[C@@H]1O[C@H](CO)[C@@H](O)[C@H]1O [Example 2, 2-[2-(4-fluorophenyl)ethoxy]adenosine]
affinity and selectivity for A2 adenosine receptors (in words) [1]: high affinity and selectivity
Selectivity (A1/A2) [1]: 29432
EC50 [2]: 25.6 µM

SMILES: Nc1nc(OC2CCCC2)nc2c1ncn2[C@@H]1O[C@H](CO)[C@@H](O)[C@H]1O [Example 3, 2-Cyclopentyloxyadenosine]
Selectivity (A1/A2) [1]: 866

SMILES: Nc1nc(OC2CCCCC2)nc2c1ncn2[C@@H]1O[C@H](CO)[C@@H](O)[C@H]1O [Example 4, 2-Cyclohexyloxyadenosine]
Selectivity (A1/A2) [1]: 152

SMILES: Nc1nc(OCc2ccccc2)nc2c1ncn2[C@@H]1O[C@H](CO)[C@@H](O)[C@H]1O [Example 6, 2-benzyloxyadenosine]
Selectivity (A1/A2) [1]: 15
EC50 [2]: 6.31 µM

SMILES: Nc1nc(OCCc2ccccc2)nc2c1ncn2[C@@H]1O[C@H](CO)[C@@H](O)[C@H]1O [Example 7, 2-(2-phenylethoxy)adenosine]
Selectivity (A1/A2) [1]: 7126
EC50 [2]: 20 µM

SMILES: COc1ccccc1CCOc1nc(N)c2ncn([C@@H]3O[C@H](CO)[C@@H](O)[C@H]3O)c2n1 [Example 8, 2-[2-(2-methoxyphenyl)ethoxy]adenosine]
Selectivity (A1/A2) [1]: 1109
EC50 [2]: 35.5 µM

SMILES: COc1cccc(CCOc2nc(N)c3ncn([C@@H]4O[C@H](CO)[C@@H](O)[C@H]4O)c3n2)c1 [Example 9, 2-[2-(3-methoxyphenyl)ethoxy]adenosine]
Selectivity (A1/A2) [1]: 6238
EC50 [2]: 16.2 µM

SMILES: COc1ccc(CCOc2nc(N)c3ncn([C@@H]4O[C@H](CO)[C@@H](O)[C@H]4O)c3n2)cc1 [Example 10, 2-[2-(4-methoxyphenyl)ethoxy]adenosine]
affinity and selectivity for A2 adenosine receptors (in words) [1]: high affinity and selectivity
Selectivity (A1/A2) [1]: 14089
EC50 [2]: 19.7 µM

SMILES: Cc1ccccc1CCOc1nc(N)c2ncn([C@@H]3O[C@H](CO)[C@@H](O)[C@H]3O)c2n1 [Example 11, 2-[2-(2-methylphenyl)ethoxy]adenosine]
Selectivity (A1/A2) [1]: 6610
EC50 [2]: 25.1 µM

SMILES: COc1cc(CCOc2nc(N)c3ncn([C@@H]4O[C@H](CO)[C@@H](O)[C@H]4O)c3n2)cc(OC)c1OC [Example 12, 2-[2-(3,4,5-trimethoxyphenyl)ethoxy]adenosine]
Selectivity (A1/A2) [1]: 2151
EC50 [2]: 47.3 µM

SMILES: Nc1nc(OCCc2cccs2)nc2c1ncn2[C@@H]1O[C@H](CO)[C@@H](O)[C@H]1O [Example 13, 2-[2-(2-thienyl)ethoxy]adenosine]
Selectivity (A1/A2) [1]: 3212
EC50 [2]: 11.9 µM

EC50 [2]: 8.41 µM
SMILES: Nc1nc(OCCc2cccc3ccccc23)nc2c1ncn2[C@@H]1O[C@H](CO)[C@@H](O)[C@H]1O [Example 15, 2-[2-(1-naphthyl)ethoxy]adenosine]

EC50 [2]: 14.1 µM
SMILES: Nc1nc(OCCc2c[nH]c3ccccc23)nc2c1ncn2[C@@H]1O[C@H](CO)[C@@H](O)[C@H]1O [Example 16, 2-[2-(3-indolyl)ethoxy]adenosine]

SMILES: CC(COc1nc(N)c2ncn([C@@H]3O[C@H](CO)[C@@H](O)[C@H]3O)c2n1)c1ccccc1 (stereo partly drawn) [Example 17, 2-(2-phenyl-1-propoxy)adenosine]
Selectivity (A1/A2) [1]: 5899

SMILES: CC[C@@H](COc1nc(N)c2ncn([C@@H]3O[C@H](CO)[C@@H](O)[C@H]3O)c2n1)c1ccccc1 [Example 18]
EC50 ([1]; concentration for half-maximal increase in coronary flow, infusion into aortic cannula, stepwise every 5 minutes): 0.374 µM
Selectivity (A1/A2) [1]: 50
EC50 [2]: 18.8 µM

SMILES: CC[C@H](COc1nc(N)c2ncn([C@@H]3O[C@H](CO)[C@@H](O)[C@H]3O)c2n1)c1ccccc1 [Example 19, 2-[(2S)-phenyl-1-butoxy]adenosine]
Selectivity (A1/A2) [1]: 872

SMILES: Nc1nc(OCCCCc2ccccc2)nc2c1ncn2[C@@H]1O[C@H](CO)[C@@H](O)[C@H]1O [Example 20, 2-(4-phenyl-1-butoxy)adenosine]
Selectivity (A1/A2) [1]: 743

SMILES: Nc1nc(OCCCCCc2ccccc2)nc2c1ncn2[C@@H]1O[C@H](CO)[C@@H](O)[C@H]1O [Example 21, 2-(5-phenyl-1-pentoxy)adenosine]
EC50 [2]: 4.6 µM

SMILES: CCNC(=O)[C@H]1O[C@@H](n2cnc3c(N)nc(OCCc4ccccc4)nc32)[C@H](O)[C@@H]1O [Example 22, 2-(2-phenyl)ethoxy-5'-N-ethylcarboxamidoadenosine]
affinity and selectivity for A2 adenosine receptors (in words) [1]: high affinity and selectivity
Selectivity (A1/A2) [1]: 11509

EC50 [2]: 11.4 µM
SMILES: Nc1nc(OCCc2ccc3ccccc3c2)nc2c1ncn2[C@@H]1O[C@H](CO)[C@@H](O)[C@H]1O [Example 24, 2-[2-(2-naphthyl)ethoxy]adenosine]
